Measured values reported in US7488844B2, “Therapeutic agents” (AstraZeneca AB, priority 2001, dated 2009).

Each compound was assayed against T1, PPARγ (Homo sapiens, UniProt P37231) (assay: GAL4-PPARγ ligand binding domain luciferase reporter transactivation in transiently transfected U2-OS cells). Conditions: selectivity PPARα over PPARγ.
T1 construct: expressed in transfected cells; host or cells: U2-OS (human osteogenic sarcoma), transient electroporation
T1 sequence (P37231 238-503 limits assumed): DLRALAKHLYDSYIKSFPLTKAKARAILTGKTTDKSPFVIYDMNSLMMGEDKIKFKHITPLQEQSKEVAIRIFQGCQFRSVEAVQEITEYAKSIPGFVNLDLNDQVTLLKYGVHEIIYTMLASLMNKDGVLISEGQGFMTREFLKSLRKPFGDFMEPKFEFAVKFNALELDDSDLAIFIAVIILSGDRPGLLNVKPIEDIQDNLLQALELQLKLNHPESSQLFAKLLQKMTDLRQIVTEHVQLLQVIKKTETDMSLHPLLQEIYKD
Assay type: cell-based
Description: The compounds of Examples 5-9 were tested in the assays described in WO03/051821.
Compounds were dissolved in DMSO to obtain 16 mM stock solutions. Before assays, stock solutions were further diluted in DMSO and culture media.
U2-OS, (Osteogenic sarcoma, Human) was purchased from ATCC, USA. Cells were expanded and refrozen in batches from passage number six. Cells were cultured in Dulbecco's modified Eagle medium (DMEM) with 25 mM glucose, 2 mM glutamin or 4 mM L-alanyl-L-glutamine, 10% fetal calf serum, at 5% CO2. Phosphate buffered saline (PBS) without addition of calcium or magnesium was used. All cell culture reagents were from Gibco (USA) and 96-well cell culture plates were purchased from Wallah.
Standard recombinant DNA techniques were carried out as described by Ausubel (7). The Luciferase reporter vector, pGL5UAS (clone consists of five copies of the GAL4 DNA binding sequence, 5′-[…]-3′, cloned into the SacI/XhoI sites of pGL3-Promoter (Promega). The SacI/XhoI fragment carrying the UAS sites was constructed using annealed overlapping oligonucleotides.
Expression vectors used are based upon pSG5 (Stratagene). All vectors contain an EcoRI/NheI fragment encoding the DNA binding domain of GAL4 (encoding amino acid positions 1-145 of database accession number P04386) followed by an in-frame fusion to a fragment encoding the nuclear localisation sequence from T antigen of Polyoma Virus.
The nuclear localisation sequence was constructed using annealed overlapping oligonucleotides creating NheI/KpnI sticky ends(5′-[…]-3′). The ligand binding domains from human and mouse PPARa and human and mouse PPARy were PCR amplified as KpnI/BamHI fragments and cloned in frame to the GAL4 DNA binding domain and the nuclear localisation sequence. The sequence of all plasmid constructs used were confirmed by sequencing. The following expression vectors were used for transient transfections:
Frozen stocks of cells from passage number six were thawed and expanded to passage number eight before transfections. […]
In the case of CCO[C@@H](Cc1ccc(OCC(=O)N(Cc2ccc(Cl)cc2)Cc2ccc(Cl)cc2)cc1)C(=O)O [Example 22, (2S)-3-(4-{2-[bis(4-Chlorobenzyl)amino]-2-oxoethoxy}phenyl)-2-ethoxypropanoic acid], the “ratio EC50 (PPARγ): EC50 (PPARα)” value is reported as greater than 1000.
For CCO[C@@H](Cc1ccc(OCC(=O)N(Cc2ccc(Cl)cc2)Cc2ccc(C(C)(C)C)cc2)cc1)C(=O)O [Example 23, (2S)-3-(4-{2-[(4-tert-Butylbenzyl)(4-chlorobenzyl)amino]-2-oxoethoxy}phenyl)-2-ethoxypropanoic acid], the “ratio EC50 (PPARγ): EC50 (PPARα)” value was greater than 400.
For CCO[C@@H](Cc1ccc(OCC(=O)N(Cc2ccc(C(F)(F)F)cc2)Cc2ccc(C(F)(F)F)cc2)cc1)C(=O)O [Example 25, (2S)-3-[4-(2-{bis[4-(Trifluoromethyl)benzyl]amino}-2-oxoethoxy)phenyl]-2-ethoxypropanoic acid], the “ratio EC50 (PPARγ): EC50 (PPARα)” value was greater than 900.
